{"source": "patent US20090169648A1", "about": "“COMPOSITIONS TO REDUCE BLOOD GLUCOSE LEVELS AND TREAT DIABETES” (Astrum Therapeutics Pty Ltd, priority 2006, published 2009)", "key": {"[1]": {"system": "Fatty diabetic Zucker rats", "experiment": "Fatty diabetic Zucker rats, 4-week diets, fasting glucose", "type": "in vivo, rat", "conditions": "diet for 4 weeks", "experimental": "Fatty diabetic Zucker rats were separated into three groups to receive three diets for 4 weeks: a) 1% Mg in diet (5 times higher than control diet); b) a combination including 2 g/L of vitamin C in drinking water, 2.5% of KM in diet, 400 mg/kg of α-LA; c) Comp1 that includes 1% of Mg in diet, 2 g/L of vitamin C in drinking water, 2.5% of KM in diet, 400 mg/kg of α-LA.\nNo change in the level of fasting glucose level vs baseline was observed by the administration of Mg. 17% reduction of glucose vs baseline was observed by the combination of Vitamin C, KM and α-LA. 28% reduction of glucose vs baseline was observed by Comp1 (the combination of Vitamin C, KM and α-LA with Mg salt)"}, "[2]": {"system": "humans", "conditions": "seven clinical trials; cited from earlier work"}, "[3]": {"system": "humans", "conditions": "cited from earlier work"}, "[4]": {"system": "DM patients", "conditions": "cited from earlier work"}, "[5]": {"system": "humans", "conditions": "exposure of humans; cited from earlier work"}, "[6]": {"system": "timed-pregnant Sprague-Dawley rats", "conditions": "rat, in vivo; cited from earlier work"}, "[7]": {"system": "T2DM patients", "conditions": "200 μg twice daily, three weeks, cited from earlier work"}, "[8]": {"system": "T2DM patients", "conditions": "200 μg twice daily, 12 weeks, versus placebo; cited from earlier work"}}, "note": "Read-outs that look alike come from different tables or passages of the source."}
{"molecule": "[Cl-].[Cl-].[Mg+2]", "note": "[Mg, Magnesium Chloride]", "values": [{"measurement": "reduction of fasting glucose level vs baseline", "setting": "[1]", "value": "No change"}, {"measurement": "effect on glucose levels", "setting": "[2]", "value": "failed to show reduced glucose levels"}]}
{"molecule": "O=C(O)CCCCC1CCSS1", "note": "(stereo not drawn) [α-LA, Alpha-lipoic acid]", "values": [{"measurement": "reduction of fasting glucose level", "setting": "[3]; lean T2DM patients", "value": "~15", "unit": "%"}, {"measurement": "reduction of fasting glucose level", "setting": "[3]; patients with diabetic neuropathy", "value": 18, "unit": "%"}, {"measurement": "effect on glucose levels", "setting": "[3]; two clinical trials", "value": "no effect"}, {"measurement": "decrease of levels of peroxides", "setting": "[4]", "value": 34, "unit": "%"}]}
{"molecule": "OCCNCCO", "note": "[diethanolamine]", "values": [{"measurement": "individuals developing asthma", "setting": "[5]", "value": 0.6, "unit": "%"}]}
{"molecule": "CCN(CC)CCO", "note": "[diethylethanolamine]", "values": [{"measurement": "reduction of body weight", "setting": "[6]", "value": 9.5, "unit": "%"}, {"measurement": "reduction of weight gain", "setting": "[6]", "value": 48, "unit": "%"}]}
{"molecule": "Chromium picolinate [CrPic]", "values": [{"measurement": "reduction in glucose versus baseline", "setting": "[7]; T2DM patients", "value": "−21", "unit": "%"}, {"measurement": "change in cholesterol versus baseline", "setting": "[7]", "value": "−9.4", "unit": "%"}, {"measurement": "change in triglycerides versus baseline", "setting": "[7]", "value": "−10.5", "unit": "%"}, {"measurement": "glycated hemoglobin (HbA1C) after treatment", "setting": "[7]; from 8.2% at baseline", "value": 7.6, "unit": "%"}, {"measurement": "improvement in fasting glucose", "setting": "[8]", "value": 0.44, "unit": "mM"}, {"measurement": "improvement in post-prandial serum glucose", "setting": "[8]", "value": 1.97, "unit": "mM"}]}
